Data from PubChem BioAssay (NCI).
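Cells were grown in 96-well plates and exposed to each compound for 48 hours at five concentrations; endpoints were interpolated linearly between bracketing concentrations, or set to the highest concentration if not reached. TGI: total growth inhibition.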

Key:
Assay in all cases: NCI tumour cell line growth inhibition, 48 h
[1] = test system: A498 renal
[2] = test system: K-562 leukemia
[3] = test system: DLD-1 colon
[4] = test system: UACC-62 melanoma
[5] = test system: MCF7 breast
[6] = test system: SK-MEL-28 melanoma
[7] = test system: XF 498 CNS
[8] = test system: M19-MEL melanoma
[9] = test system: IGROV1 ovarian
[10] = test system: COLO 205 colon
[11] = test system: HCC-2998 colon
[12] = test system: LOX IMVI melanoma
[13] = test system: UACC-257 melanoma
[14] = test system: MALME-3M melanoma
[15] = test system: HOP-62 NSCLC
[16] = test system: SF-539 CNS
[17] = test system: SNB-75 CNS
[18] = test system: HOP-92 NSCLC
[19] = test system: KM12 colon
[20] = test system: HT29 colon
[21] = test system: OVCAR-3 ovarian
[22] = test system: OVCAR-8 ovarian
[23] = test system: RXF 393 renal
[24] = test system: SF-295 CNS
[25] = test system: KM20L2 colon
[26] = test system: NCI/ADR-RES ovarian
[27] = test system: HCT-116 colon
[28] = test system: SK-OV-3 ovarian
[29] = test system: NCI-H460 lung
[30] = test system: HL-60(TB) leukemia
[31] = test system: HCT-15 colon
[32] = test system: SNB-78 CNS
[33] = test system: SK-MEL-5 melanoma
[34] = test system: A549 NSCLC
[35] = test system: NCI-H226 lung
[36] = test system: P388 leukemia
[37] = test system: SK-MEL-2 melanoma
[38] = test system: CCRF-CEM leukemia
[39] = test system: HOP-18 NSCLC
[40] = test system: OVCAR-5 ovarian
[41] = test system: DMS 273 small cell lung
[42] = test system: EKVX NSCLC
[43] = test system: U251 CNS
[44] = test system: OVCAR-4 ovarian
[45] = test system: SN12K1 renal
[46] = test system: SN12C renal
[47] = test system: SW-620 colon
[48] = test system: NCI-H23 lung
[49] = test system: CAKI-1 renal
[50] = test system: NCI-H522 lung
[51] = test system: SF-268 CNS
[52] = test system: SNB-19 CNS
[53] = test system: DMS 114 small cell lung
[54] = test system: P388/ADR leukemia
[55] = test system: UO-31 renal

`CC(C)(C)c1ccc2c(c1)OP1(Oc3cccc4cccnc34)(O2)Oc2ccc(C(C)(C)C)cc2O1` was tested, and the TGI [1] was 34.9 µM, the TGI [2] was 37.5 µM and the TGI [3] was 21.2 µM. The TGI [4] was 12.2 µM, the TGI [5] was 5.48 µM and the TGI [6] was > 84.9 µM. For the same molecule, the TGI [7] was 7.56 µM, the TGI [8] was 33.5 µM and the TGI [9] was 18.3 µM. For the same molecule, the TGI [10] was 9.02 µM, the TGI [11] was 24.1 µM and the TGI [12] was 17.7 µM. The TGI [13] was > 30.4 µM, the TGI [14] was 51.3 µM and the TGI [15] was 62.1 µM. For the same molecule, the TGI [16] was 30.2 µM, the TGI [17] was > 54.2 µM and the TGI [18] was > 100 µM. The TGI [19] was 21.3 µM, the TGI [20] was 15.4 µM and the TGI [21] was 6.44 µM. For the same molecule, the TGI [22] was > 100 µM, the TGI [23] was 16.9 µM and the TGI [24] was 42.6 µM. It also gave a TGI [25] of 15.4 µM, a TGI [26] of 11.1 µM and a TGI [27] of 15.2 µM. The TGI [28] was > 92.1 µM, the TGI [29] was 12.7 µM and the TGI [30] was 6.82 µM. For the same molecule, the TGI [31] was 15.3 µM, the TGI [32] was > 100 µM and the TGI [33] was 13.7 µM. The TGI [34] was > 54.7 µM, the TGI [35] was 30.9 µM and the TGI [36] was 2.64 µM. The TGI [37] was 43.8 µM, the TGI [38] was > 25.2 µM and the TGI [39] was > 60.5 µM. The TGI [40] was 32 µM, the TGI [41] was 13.8 µM and the TGI [42] was 35.9 µM. The TGI [43] was 43.8 µM, the TGI [44] was 6.14 µM and the TGI [45] was 14.2 µM. For the same molecule, the TGI [46] was 52.9 µM, the TGI [47] was > 31.8 µM and the TGI [48] was 10.2 µM. The TGI [49] was > 23.5 µM, the TGI [50] was 26.4 µM and the TGI [51] was 26.7 µM. For the same molecule, the TGI [52] was > 100 µM, the TGI [53] was 5.97 µM and the TGI [54] was 4.69 µM. For the same molecule, the TGI [55] was 13.4 µM.
`O=C1c2cccc3cc4ccccc4c(c23)C(=O)N1CCNCCN1C(=O)c2cccc3cc4ccccc4c(c23)C1=O` was tested, and the TGI [1] was 2.26 µM, the TGI [2] was 1.47 µM and the TGI [3] was 3.8 µM. For the same molecule, the TGI [4] was 1.13 µM, the TGI [5] was 5.17 µM and the TGI [6] was 2.65 µM. For the same molecule, the TGI [7] was 0.82 µM, the TGI [8] was 1.78 µM and the TGI [9] was 3.56 µM. The TGI [10] was 2.22 µM, the TGI [11] was 2.23 µM and the TGI [12] was 1.27 µM. It also gave a TGI [13] of 2.74 µM, a TGI [14] of 1.77 µM and a TGI [15] of 4.92 µM. For the same molecule, the TGI [16] was 2.2 µM, the TGI [17] was 1.27 µM and the TGI [18] was 1.75 µM. The TGI [20] was 1.69 µM, the TGI [21] was 2.41 µM and the TGI [22] was 2.31 µM. For the same molecule, the TGI [23] was 1.82 µM, the TGI [24] was 0.906 µM and the TGI [25] was 2.22 µM. It also gave a TGI [26] of 3.11 µM, a TGI [27] of 1.98 µM and a TGI [28] of 5.8 µM. For the same molecule, the TGI [29] was 0.278 µM, the TGI [30] was 0.619 µM and the TGI [31] was 1.53 µM. It also gave a TGI [32] of 1.82 µM, a TGI [33] of 1.84 µM and a TGI [34] of 0.982 µM. The TGI [35] was 6.12 µM, the TGI [37] was 3.15 µM and the TGI [38] was 1.04 µM. It also gave a TGI [39] of 0.879 µM, a TGI [40] of 1.77 µM and a TGI [41] of 1 µM. The TGI [42] was 2.23 µM, the TGI [43] was 1.24 µM and the TGI [44] was 2.14 µM. The TGI [45] was 6.96 µM, the TGI [46] was 1.59 µM and the TGI [47] was 1.87 µM. The TGI [48] was 1.21 µM, the TGI [49] was 1.04 µM and the TGI [50] was 3.6 µM. The TGI [51] was 2.55 µM, the TGI [52] was 2.11 µM and the TGI [53] was 0.78 µM. For the same molecule, the TGI [54] was 0.611 µM and the TGI [55] was 1.57 µM.
